Experimental data published in patent publication US20230226005A1, “Methods of Treating, Ameliorating, Shortening Duration, and/or Reversing Symptoms and/or Complications of a Coronavirus Infection” (Yale University, priority 2020, published 2023).

Experiments:
COVID-19 = conditions: hospitalized COVID-19 patients; 200 mg po three times daily for 5 days; cited from earlier work
COVID-19 infection [1] = experiment: Phase IIa study: chest/respiratory-family symptom score; assay type: in vivo
COVID-19 infection [2] = experiment: Phase IIa study: gastrointestinal-family symptom score; assay type: in vivo; conditions: for gastrointestinal-family symptoms, Fitzmaurice mixed effects model, Effect: Camostat vs Placebo
SARS-CoV-2 = experiment: Phase IIa double-blind placebo-controlled study, camostat mesylate 200 mg four times daily for seven days: viral load (log10) by COVID-19 RT-PCR of nasopharyngeal swab and saliva; assay type: in vivo; conditions: N gene

Compound: CN(C)C(=O)COC(=O)Cc1ccc(OC(=O)c2ccc(NC(=N)N)cc2)cc1 [camostat, 4-[[4-[(Aminoiminomethyl)amino]benzoyl]oxy]benzeneacetic acid 2-(dimethylamino)-2-oxoethyl ester]
- adverse effects (COVID-19): adverse effects were not observed
- effect on clinical severity (e.g. escalation to ICU admission) (COVID-19): did not have an observable effect
- chest/respiratory-family symptom score, Fitzmaurice model, Camostat (COVID-19 infection [1]; day 0): 7.5 (0.7)
- chest/respiratory-family symptom score, Fitzmaurice model, Camostat (COVID-19 infection [1]; day 1): 7.7 (0.8)
- chest/respiratory-family symptom score, Fitzmaurice model, Effect (placebo vs camostat) (COVID-19 infection [1]; day 1): −0.1 (0.9)
- chest/respiratory-family symptom score, Fitzmaurice model, Camostat (COVID-19 infection [1]; day 2): 7.6 (0.8)
- chest/respiratory-family symptom score, Fitzmaurice model, Effect (placebo vs camostat) (COVID-19 infection [1]; day 2): −0.5 (0.9)
- chest/respiratory-family symptom score, Fitzmaurice model, Camostat (COVID-19 infection [1]; day 3): 7.5 (0.8)
- chest/respiratory-family symptom score, Fitzmaurice model, Effect (placebo vs camostat) (COVID-19 infection [1]; day 3): −0.4 (0.9)
- chest/respiratory-family symptom score, Fitzmaurice model, Camostat (COVID-19 infection [1]; day 4): 8 (0.8)
- chest/respiratory-family symptom score, Fitzmaurice model, Effect (placebo vs camostat) (COVID-19 infection [1]; day 4): −1.7 (0.9)
- chest/respiratory-family symptom score, Fitzmaurice model, Camostat (COVID-19 infection [1]; day 5): 7 (0.8)
- chest/respiratory-family symptom score, Fitzmaurice model, Effect (placebo vs camostat) (COVID-19 infection [1]; day 5): −0.8 (0.9)
- chest/respiratory-family symptom score, Fitzmaurice model, Camostat (COVID-19 infection [1]; day 6): 6.6 (0.8)
- chest/respiratory-family symptom score, Fitzmaurice model, Effect (placebo vs camostat) (COVID-19 infection [1]; day 6): −0.7 (0.9)
- chest/respiratory-family symptom score, Fitzmaurice model, Camostat (COVID-19 infection [1]; day 7): 6.2 (0.8)
- chest/respiratory-family symptom score, Fitzmaurice model, Effect (placebo vs camostat) (COVID-19 infection [1]; day 7): −0.7 (0.9)
- chest/respiratory-family symptom score, Fitzmaurice model, Camostat (COVID-19 infection [1]; day 8): 5.7 (0.8)
- chest/respiratory-family symptom score, Fitzmaurice model, Effect (placebo vs camostat) (COVID-19 infection [1]; day 8): −1.4 (0.9)
- chest/respiratory-family symptom score, Fitzmaurice model, Camostat (COVID-19 infection [1]; day 9): 5.4 (0.8)
- chest/respiratory-family symptom score, Fitzmaurice model, Effect (placebo vs camostat) (COVID-19 infection [1]; day 9): −1.2 (0.9)
- chest/respiratory-family symptom score, Fitzmaurice model, Camostat (COVID-19 infection [1]; day 10): 4.9 (0.8)
- chest/respiratory-family symptom score, Fitzmaurice model, Effect (placebo vs camostat) (COVID-19 infection [1]; day 10): −1 (0.9)
- chest/respiratory-family symptom score, Fitzmaurice model, Camostat (COVID-19 infection [1]; day 11): 4.2 (0.8)
- chest/respiratory-family symptom score, Fitzmaurice model, Effect (placebo vs camostat) (COVID-19 infection [1]; day 11): −0.5 (0.9)
- chest/respiratory-family symptom score, Fitzmaurice model, Camostat (COVID-19 infection [1]; day 12): 4 (0.8)
- chest/respiratory-family symptom score, Fitzmaurice model, Effect (placebo vs camostat) (COVID-19 infection [1]; day 12): −1 (0.9)
- chest/respiratory-family symptom score, Fitzmaurice model, Camostat (COVID-19 infection [1]; day 13): 3.9 (0.9)
- chest/respiratory-family symptom score, Fitzmaurice model, Effect (placebo vs camostat) (COVID-19 infection [1]; day 13): −1.1 (0.9)
- chest/respiratory-family symptom score, Fitzmaurice model, Camostat (COVID-19 infection [1]; day 14): 3.5 (0.9)
- chest/respiratory-family symptom score, Fitzmaurice model, Effect (placebo vs camostat) (COVID-19 infection [1]; day 14): −0.8 (0.9)
- gastrointestinal-family symptoms, Fitzmaurice mixed effects model, Camostat (COVID-19 infection [2]; Day 0): 2.1 (0.2)
- gastrointestinal-family symptoms, Fitzmaurice mixed effects model, Camostat (COVID-19 infection [2]; Day 1): 2.4 (0.3)
- gastrointestinal-family symptoms, Fitzmaurice mixed effects model, Effect (COVID-19 infection [2]; Day 1): −0.4 (0.4)
- gastrointestinal-family symptoms, Fitzmaurice mixed effects model, Camostat (COVID-19 infection [2]; Day 2): 2 (0.3)
- gastrointestinal-family symptoms, Fitzmaurice mixed effects model, Effect (COVID-19 infection [2]; Day 2): −0.1 (0.4)
- gastrointestinal-family symptoms, Fitzmaurice mixed effects model, Camostat (COVID-19 infection [2]; Day 3): 1.6 (0.3)
- gastrointestinal-family symptoms, Fitzmaurice mixed effects model, Effect (COVID-19 infection [2]; Day 3): 0.1 (0.4)
- gastrointestinal-family symptoms, Fitzmaurice mixed effects model, Camostat (COVID-19 infection [2]; Day 4): 1 (0.3)
- gastrointestinal-family symptoms, Fitzmaurice mixed effects model, Effect (COVID-19 infection [2]; Day 4): 0.8 (0.4)
- gastrointestinal-family symptoms, Fitzmaurice mixed effects model, Camostat (COVID-19 infection [2]; Day 5): 0.9 (0.3)
- gastrointestinal-family symptoms, Fitzmaurice mixed effects model, Effect (COVID-19 infection [2]; Day 5): 0.5 (0.4)
- gastrointestinal-family symptoms, Fitzmaurice mixed effects model, Camostat (COVID-19 infection [2]; Day 6): 0.8 (0.3)
- gastrointestinal-family symptoms, Fitzmaurice mixed effects model, Effect (COVID-19 infection [2]; Day 6): 0.6 (0.4)
- gastrointestinal-family symptoms, Fitzmaurice mixed effects model, Camostat (COVID-19 infection [2]; Day 7): 0.7 (0.3)
- gastrointestinal-family symptoms, Fitzmaurice mixed effects model, Effect (COVID-19 infection [2]; Day 7): 0.4 (0.4)
- gastrointestinal-family symptoms, Fitzmaurice mixed effects model, Camostat (COVID-19 infection [2]; Day 8): 0.6 (0.3)
- gastrointestinal-family symptoms, Fitzmaurice mixed effects model, Effect (COVID-19 infection [2]; Day 8): 0.5 (0.4)
- gastrointestinal-family symptoms, Fitzmaurice mixed effects model, Camostat (COVID-19 infection [2]; Day 9): 0.5 (0.3)
- gastrointestinal-family symptoms, Fitzmaurice mixed effects model, Effect (COVID-19 infection [2]; Day 9): 0.5 (0.4)
- gastrointestinal-family symptoms, Fitzmaurice mixed effects model, Camostat (COVID-19 infection [2]; Day 10): 0.8 (0.3)
- gastrointestinal-family symptoms, Fitzmaurice mixed effects model, Effect (COVID-19 infection [2]; Day 10): 0.2 (0.4)
- gastrointestinal-family symptoms, Fitzmaurice mixed effects model, Camostat (COVID-19 infection [2]; Day 11): 0.5 (0.3)
- gastrointestinal-family symptoms, Fitzmaurice mixed effects model, Effect (COVID-19 infection [2]; Day 11): 0.2 (0.4)
- gastrointestinal-family symptoms, Fitzmaurice mixed effects model, Camostat (COVID-19 infection [2]; Day 12): 0.4 (0.3)
- gastrointestinal-family symptoms, Fitzmaurice mixed effects model, Effect (COVID-19 infection [2]; Day 12): 0.3 (0.4)
- gastrointestinal-family symptoms, Fitzmaurice mixed effects model, Camostat (COVID-19 infection [2]; Day 13): 0.5 (0.3)
- gastrointestinal-family symptoms, Fitzmaurice mixed effects model, Effect (COVID-19 infection [2]; Day 13): 0.1 (0.4)
- gastrointestinal-family symptoms, Fitzmaurice mixed effects model, Camostat (COVID-19 infection [2]; Day 14): 0.3 (0.3)
- gastrointestinal-family symptoms, Fitzmaurice mixed effects model, Effect (COVID-19 infection [2]; Day 14): 0.4 (0.4)
- viral load, Fitzmaurice mixed model, Common baseline (SARS-CoV-2; day 0): 6.5 (6, 6.9) ^ log10
- viral load change Effect (camostat vs placebo), Fitzmaurice mixed model, visit 2 (SARS-CoV-2; day 2): −0.06 (−0.83, 0.7) log10
- viral load, Fitzmaurice mixed model, visit 2 (SARS-CoV-2; day 2): 5.3 (4.6, 5.9) log10
- viral load, Fitzmaurice mixed model, visit 2 change (SARS-CoV-2; day 2): −1.2 (−1.8, −0.6) log10
- viral load change Effect (camostat vs placebo), Fitzmaurice mixed model, visit 3(D4) (SARS-CoV-2; day 4): −0.74 (−1.51, 0.03) log10
- viral load, Fitzmaurice mixed model, visit 3(D4) (SARS-CoV-2; day 4): 4.4 (3.8, 5.1) log10
- viral load, Fitzmaurice mixed model, visit 3(D4) change (SARS-CoV-2; day 4): −2 (−2.6, −1.5) log10
- viral load change Effect (camostat vs placebo), Fitzmaurice mixed model, visit 4(D6) (SARS-CoV-2; day 6): −0.23 (−1.4, 0.94) log10
- viral load, Fitzmaurice mixed model, visit 4(D6) (SARS-CoV-2; day 6): 2.8 (2, 3.7) ^ log10
- viral load, Fitzmaurice mixed model, visit 4(D6) change (SARS-CoV-2; day 6): −3.6 (−4.5, −2.8) log10
- change in viral load from baseline, Mean (SARS-CoV-2; visit 1 (day 0)): 0.00 log10
- change in viral load from baseline, Median (SARS-CoV-2; visit 1 (day 0)): 0.00 log10
- viral load (log10) Mean (SARS-CoV-2; visit 1 (day 0)): 6.35 log10
- viral load (log10) Median (SARS-CoV-2; visit 1 (day 0)): 6.47 log10
- change in viral load from baseline, Mean (SARS-CoV-2; visit 2 (day 2)): −1.15 log10
- change in viral load from baseline, Median (SARS-CoV-2; visit 2 (day 2)): −1.14 log10
- viral load (log10) Mean (SARS-CoV-2; visit 2 (day 2)): 4.89 log10
- viral load (log10) Median (SARS-CoV-2; visit 2 (day 2)): 4.49 log10
- change in viral load from baseline, Mean (SARS-CoV-2; visit 3 (day 4)): −2.07 log10
- change in viral load from baseline, Median (SARS-CoV-2; visit 3 (day 4)): −2.32 log10
- viral load (log10) Mean (SARS-CoV-2; visit 3 (day 4)): 4.35 log10
- viral load (log10) Median (SARS-CoV-2; visit 3 (day 4)): 4.56 log10
- change in viral load from baseline, Mean (SARS-CoV-2; visit 4 (day 6)): −3.41 log10
- change in viral load from baseline, Median (SARS-CoV-2; visit 4 (day 6)): −3.07 log10
- viral load (log10) Mean (SARS-CoV-2; visit 4 (day 6)): 2.58 log10
